# Read-outs that look alike come from different tables or passages of the source.
# How the values were obtained:
# [1] = system: Meloidogyne incognita; experiment: Meloidogyne incognita test; type: in vivo; conditions: application rate 20 ppm, after 14 days, lettuce
# Description: Meloidogyne incognita Test Solvent: 125.0 parts by weight of acetone To produce a suitable active ingredient formulation, 1 part by weight of active ingredient is mixed with the stated amount of solvent and the concentrate is diluted with water to the desired concentration. Vessels are filled with sand, active ingredient solution, an egg/larvae suspension of the southern root-knot nematode (Meloidogyne incognita) and lettuce seeds. The lettuce seeds germinate and the plants develop. The galls develop on the roots. After 14 days, the nematicidal efficacy in % is determined by the formation of galls. 100% means that no galls were found; 0% means that the number of galls on the treated plants corresponds to the untreated control.
# [2] = system: Myzus persicae; experiment: Myzus persicae spray test; type: in vivo; conditions: application rate 500 g/ha, after 6 days, Chinese cabbage leaf discs
# Description: Myzus persicae—Spray Test
# Solvent: 78 parts by weight of acetone • • 1.5 parts by weight of dimethylformamide
# (§1) Emulsifier: alkylaryl polyglycol ether
# (§2) To produce a suitable active ingredient formulation, 1 part by weight of active ingredient is dissolved with the specified parts by weight of solvent and made up with water containing an emulsifier concentration of 1000 ppm until the desired concentration is attained. To produce further test concentrations, the formulation is diluted with emulsifier-containing water.
# Discs of Chinese cabbage leaves (Brassica pekinensis) infested by all stages of the green peach aphid (Myzus persicae) are sprayed with an active ingredient formulation of the desired concentration.
# After 6 days, the efficacy in % is determined. 100% means that all the aphids have been killed; 0% means that no aphids have been killed.
# [3] = system: Phaedon cochleariae; experiment: Phaedon cochleariae spray test; type: in vivo; conditions: after 7 days, Chinese cabbage leaf discs
# Method in brief: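 Chinese cabbage leaf discs sprayed with compound in acetone/DMF and emulsifier-containing water, then infested with mustard beetle larvae once dry. Efficacy in % scored after 7 days (100% = all larvae killed, 0% = none).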
# [4] = log P by HPLC on reversed-phase column (C 18), EEC Directive 79/831 Annex V.A8; type: physicochemical; conditions: 55° C.; for LOGP_HCOOH: log P (HCOOH); for LOGP_NEUTRAL: log P, neutral range; for chromatographic logP: reversed-phase HPLC column (C 18)
# Description: Temperature: 55° C. […] Called log P (HCOOH) in the table. […] Called log P (neutral) in the table.
# [5] = system: Ctenocephalides felis; experiment: Ctenocephalides felis oral test; type: in vivo; conditions: application rate 100 ppm in citrated cattle blood, after 2 days, adult cat fleas
# Method in brief: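 About 20 unfed adult cat fleas fed through a parafilm membrane on citrated cattle blood dosed with compound from a DMSO formulation. Percent kill was scored after 2 days.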
# [6] = system: Spodoptera frugiperda; experiment: Spodoptera frugiperda spray test; type: in vivo; conditions: after 7 days, maize leaf discs
# Method in brief: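 Maize leaf discs were sprayed with compound formulated in acetone/DMF and emulsifier-containing water, dried, then infested with Spodoptera frugiperda caterpillars. Percent kill was scored after 7 days, from 100% (all dead) to 0% (none dead).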
# [7] = system: Boophilus microplus; experiment: Boophilus microplus injection test; type: in vivo; conditions: application rate 20 μg/animal, assessed after 7 days, engorged adult female cattle ticks
# Description: Boophilus microplus—Injection Test
# Solvent: dimethyl sulphoxide
# To produce a suitable active ingredient formulation, 10 mg of active ingredient are mixed with 0.5 ml of solvent and the concentrate is diluted to the desired concentration with solvent.
# 1 μl of the active ingredient solution is injected into the abdomen of 5 engorged adult female cattle ticks (Boophilus microplus). The animals are transferred into dishes and kept in a climate-controlled room.
# Efficacy is assessed after 7 days by laying of fertile eggs. Eggs which are not visibly fertile are stored in a climate-controlled cabinet until the larvae hatch after about 42 days. An efficacy of 100% means that none of the ticks has laid any fertile eggs; 0% means that all the eggs are fertile.
# [8] = system: Tetranychus urticae; experiment: Tetranychus urticae spray test, OP-resistant; type: in vivo; conditions: application rate 500 g/ha, after 6 days, bean leaf discs
# Description: Tetranychus urticae—Spray Test, OP-Resistant
# Solvent: 78.0 parts by weight of acetone • • 1.5 parts by weight of dimethylformamide
# as §1, §2
# Discs of bean leaves (Phaseolus vulgaris) infested with all stages of the greenhouse red spider mite (Tetranychus urticae) are sprayed with an active ingredient formulation of the desired concentration.
# After 6 days, the efficacy in % is determined. 100% means that all the spider mites have been killed; 0% means that no spider mites have been killed.
# [9] = system: Lucilia cuprina; experiment: Lucilia cuprina test; type: in vivo; conditions: application rate 100 ppm, after 2 days, L1 larvae
# Method in brief: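 Active ingredient dissolved in DMSO and diluted with water to the test concentration. About 20 first-instar sheep blowfly larvae placed on minced horsemeat containing the formulation; percentage of larvae killed scored after 2 days.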
# [10] = system: Musca domestica; experiment: Musca domestica test; type: in vivo; conditions: after 2 days, adult houseflies
# Description: Musca domestica Test Solvent: dimethyl sulphoxide To produce a suitable active ingredient formulation, 10 mg of active ingredient are mixed with 0.5 ml of dimethyl sulphoxide, and the concentrate is diluted with water to the desired concentration. Vessels containing a sponge treated with sugar solution and the active ingredient formulation of the desired concentration are populated with 10 adult houseflies (Musca domestica). After 2 days, the kill in % is determined. 100% means that all of the flies have been killed; 0% means that none of the flies have been killed.
# [11] = system: Ctenocephalides felis; experiment: Ctenocephalides felis in vitro contact test with adult cat fleas; type: in vivo; conditions: application rate 5 μg/cm^2 (500 g/ha), after 48 h
# Description: Ctenocephalides felis—In Vitro Contact Tests with Adult Cat Fleas
# For the coating of the test tubes, 9 mg of active ingredient are first dissolved in 1 ml of acetone p.a. and then diluted to the desired concentration with acetone p.a. 250 μl of the solution are distributed homogeneously on the inner walls and the base of a 25 ml glass tube by turning and rocking on an orbital shaker (rocking rotation at 30 rpm for 2 h). With 900 ppm of active ingredient solution and internal surface area 44.7 cm^2, given homogeneous distribution, an area-based dose of 5 μg/cm^2 is achieved.
# After the solvent has evaporated off, the tubes are populated with 5-10 adult cat fleas (Ctenocephalides felis), sealed with a perforated plastic lid and incubated in a horizontal position at room temperature and ambient humidity. After 48 h, efficacy is determined. To this end, the tubes are stood upright and the fleas are knocked to the base of the tube. Fleas which remain motionless at the base or move in an uncoordinated manner are considered to be dead or moribund.
# 100% efficacy means that all the fleas were dead or moribund. 0% efficacy means that no fleas were harmed.
# [12] = acidic range pH 2.7, 0.1% aqueous formic acid and acetonitrile, reversed-phase column (C 18)
# [13] = HPLC on reversed-phase column (C 18)
# [14] = acidic range at pH 2.7, 0.1% aqueous formic acid and acetonitrile, HPLC on reversed-phase column (C 18)
Structure (SMILES),nematicidal efficacy (formation of galls) [1],"LOGP_HCOOH [4, 12]","LOGP_NEUTRAL [4, 13]",efficacy (kill in %) [5],efficacy (kill in %) [9],efficacy (kill in %) ([10]; application rate 100 ppm),efficacy (beetle larvae killed) ([3]; application rate 100 g/ha),efficacy (beetle larvae killed) ([3]; application rate 500 g/ha),efficacy (fleas dead or moribund) [11],efficacy (caterpillars killed) ([6]; application rate 100 g/ha),efficacy (caterpillars killed) ([6]; application rate 500 g/ha),"LOGP_HCOOH [4, 14]",other results
"N#Cc1ccc(CNC(=O)c2cc(-c3ccc(C(F)(F)F)cc3)cc(N(C(=O)C3CC3)C(=O)C3CC3)n2)cc1F [Example I-028, 6-[Bis(cyclopropylcarbonyl)amino]-N-(4-cyano-3-fluorobenzyl)-4-[4-(trifluoromethyl)phenyl]pyridine-2-carboxamide]",90%,4.27,4.18,,,,,,,,,,"efficacy (aphids killed) [2]: 90%; pest or weed control at 500 g/ha ([3]; Phaedon cochleariae, foliar, 168 h, application rate 500 g/ha, read-out: efficacy (beetle larvae killed)): 100%; chromatographic logP ([4]; pH 2.7, LC-MS acidic range, pH 2.7, 0.1% formic acid/acetonitrile, read-out: log P (acidic) / log P (HCOOH)): 4.27; chromatographic logP ([4]; pH 7.8, LC-MS neutral range, pH 7.8, ammonium hydrogencarbonate/acetonitrile, read-out: log P (neutral)): 4.18; pest or weed control at 100 ppm ([5]; Ctenocephalides felis, po, 48 h, read-out: efficacy (kill in %)): 100%; pest or weed control at 100 g/ha ([6]; Spodoptera frugiperda, foliar, 168 h, application rate 100 g/ha, read-out: efficacy (caterpillars killed)): 83%; pest or weed control at 500 g/ha ([6]; Spodoptera frugiperda, foliar, 168 h, application rate 500 g/ha, read-out: efficacy (caterpillars killed)): 100%"
CC(C)C(=O)Nc1cc(-c2ccc(OC(F)(F)F)cc2)cc(C(=O)NCc2ccc(-c3cnco3)cc2)n1 [Example I-104],90%,3.99,3.87,80%,100%,,,,,,,,efficacy (no laying of fertile eggs) [7]: 95%; efficacy (spider mites killed) [8]: 90%
O=C(NC1CC1)c1cc(-c2ccc(C(F)(F)F)cc2)cc(NC(=O)C2CC2)n1 [Example I-013],,3.37,3.37,100%,100%,100%,100%,100%,80%,100%,100%,,
O=C(NC1CSC1)c1cc(-c2ccc(OC(F)(F)F)cc2)cc(NC(=O)C2CC2)n1 [Example I-162],90%,,3.93,100%,,,100%,100%,100%,100%,100%,3.88,
COC(=O)C1(NC(=O)c2cc(-c3ccc(OC(F)(F)F)cc3)cc(NC(=O)C3CC3)n2)CC1 [Example I-138],90%,,,100%,100%,100%,100%,100%,100%,100%,100%,3.42,
N#Cc1ccc(CNC(=O)c2cc(-c3ccc([S+]([O-])C(F)(F)F)cc3)cc(NC(=O)C3CC3)n2)cc1 (stereo not shown) [Example I-151],,,3.50,100%,100%,100%,100%,100%,,100%,100%,3.09,efficacy (no laying of fertile eggs) [7]: 80%
N#CC1CCC(NC(=O)c2cc(-c3ccc(OC(F)(F)F)cc3)cc(NC(=O)C3CC3)n2)CC1 (stereo not shown) [Example I-197],,,3.66,100%,100%,80%,83%,100%,100%,100%,100%,3.76,efficacy (kill in %) ([10]; application rate 20 ppm): 100%
COC(=O)C1(NC(=O)c2cc(-c3ccc(OC(F)(F)F)cc3)cc(NC(=O)C3CC3)n2)COC1 [Example I-175],,,3.17,,,,,,,,,3.25,efficacy (aphids killed) [2]: 90%

# — patent US20190053492A1, “SUBSTITUTED PYRIDINE COMPOUNDS AS PESTICIDES” (Bayer CropScience Aktiengesellschaft, priority 2016, published 2019)
